Measurements published in US10028956B2, “Methods of treating various cancers using an AXL/cMET inhibitor in combination with other agents” (Ignyta, Inc., priority 2013, dated 2018).
Marks after values point to notes of the source that are not given here.

Experiments:
Format in all cases: in vivo, mice
[1] = tested on: CTG-0165 erlotinib-insensitive primary NSCLC human TumorGraft; assay: NSCLC TumorGraft model CTG-0165; conditions: CTG-0165, 37 days, 10 mg/kg iv/q4dx3
Method: (§1) Methods (for the experiments shown in FIGS. 10 and 11) • Female immunocompromised nu/nu mice (Harlan) between 6-9 weeks of age were housed on irradiated papertwist-enriched ⅛″ corncob bedding (Sheperd) in individual HEPA ventilated cages (Innocage® IVC, Innovive USA) on a 12-hour light-dark cycle at 68-74° F. (20-23° C.) and 30-70% humidity. Animals were fed water ad libitum (reverse osmosis, 2 ppm Cl2) and an irradiated Test rodent diet (Teklad 2919) consisting of 19% protein, 9% fat, and 4% fiber. • Tumor Models: Champions TumorGraft models of NSCLC are owned by Champions Oncology. In this study, animals were implanted unilaterally on the right flank with tumor fragments harvested from host animals. […] Erlotinib (manufacturer: OSI Pharmaceuticals; National Drug Code: 50242-062-01; Lot #: US0002) was formulated using 100% PEG-400 as the vehicle according to manufacturer's specifications.
(§2) Efficacy measurements: Beginning Day 0, tumor dimensions were measured twice weekly by digital caliper (Fowler Ultra-Cal IV) and data including individual and mean estimated tumor volumes (Mean TV±SEM) were recorded for each group; tumor volume was calculated using the formula TV=width^2×length×0.52. At study completion, percent tumor growth inhibition (% TGI) values were calculated and reported for each treatment group (T) versus control (C) using initial (i) and final (f) tumor measurements by the formula: % TGI=1−Tf−Ti/Cf−C; single agent or combination therapies resulting in a TGI>50 at study completion are considered active in the tested model at the evaluated treatment regimen according to NCI guidelines. Individual mice reporting a tumor volume ≤50% of the Day 0 measurement for two consecutive measurements over a seven day period were considered partial responders (PR). If the PR persisted until study completion, percent tumor regression (% TR) was determined using the formula: % TR=1−Tf/Ti×100; a mean value was calculated if multiple PR mice occurred in one group. Individual mice lacking palpable tumors (<4×4 mm^2 for two consecutive measurements over a seven day period) were classified as complete responders (CR); a CR that persisted until study completion was considered a tumor-free survivor (TFS). TFS animals are excluded from efficacy calculations. Statistical differences in tumor volume were determined using a two-tailed One-Way Analysis of Variance (ANOVA) followed by the Dunett's multiple comparisons test comparing treated groups with control and combinations with standard agent alone when possible. All data collected in this study was managed electronically and stored on a redundant server system.

[2] = tested on: CTG-0159 primary NSCLC human TumorGraft; assay: NSCLC TumorGraft model CTG-0159; conditions: CTG-0159, 14 days, 10 mg/kg iv/q4dx3
Method: as §1
as §2, with “Individual mice reporting a tumor volume ≤50% of the Day 0 measurement for two consecutive measurements over a seven day period were considered partial responders (PR).” left out, “Individual mice lacking palpable tumors (<4×4 mm^2 for two consecutive measurements over a seven day period) were classified as complete responders (CR); a CR that persisted until study completion was considered a tumor-free survivor (TFS). TFS animals are excluded from efficacy calculations.” left out, “All data collected in this study was managed electronically and stored on a redundant server system.” left out

[3] = tested on: CTG-0157 primary NSCLC human TumorGraft; assay: NSCLC TumorGraft model CTG-0157; conditions: CTG-0157, 14 days, 10 mg/kg iv/q4dx3
Method: as §1
as §2, with “Individual mice reporting a tumor volume ≤50% of the Day 0 measurement for two consecutive measurements over a seven day period were considered partial responders (PR).” left out, “Individual mice lacking palpable tumors (<4×4 mm^2 for two consecutive measurements over a seven day period) were classified as complete responders (CR); a CR that persisted until study completion was considered a tumor-free survivor (TFS). TFS animals are excluded from efficacy calculations.” left out, “All data collected in this study was managed electronically and stored on a redundant server system.” left out

[4] = tested on: CTG-0170 erlotinib-insensitive primary NSCLC human TumorGraft; assay: NSCLC TumorGraft model CTG-0170; conditions: CTG-0170, 10 days, 10 mg/kg iv/q4dx3
Method: as §1, §2

[5] = tested on: CTG-0192 erlotinib-sensitive NSCLC TumorGraft; assay: NSCLC TumorGraft model CTG-0192
Method: as §1, §2

| Compound | % Tumor Growth Inhibition [1] [%*] | % Tumor Growth Inhibition [2] [%*] | % Tumor Growth Inhibition [3] [%] | % Tumor Growth Inhibition [4] [%*] | % Tumor Growth Inhibition ([5]; CTG-0192, 32 days, 10 mg/kg iv/q4dx3) [%*] | day of acquired resistance ([5]; CTG-0192, 35 mg/kg, po, qd×34) [days] | tumor regrowth after discontinuation of dosing (day 34) ([5]; CTG-0192, 35 mg/kg, po, qd×34) | tumor response during dosing ([5]; CTG-0192, 35 mg/kg, po, qd×34) |
| --- | --- | --- | --- | --- | --- | --- | --- | --- |
| CC(=O)O[C@H]1C(=O)[C@@]2(C)[C@H]([C@H](OC(=O)c3ccccc3)[C@]3(O)C[C@H](OC(=O)[C@H](O)[C@@H](NC(=O)c4ccccc4)c4ccccc4)C(C)=C1C3(C)C)[C@]1(OC(C)=O)CO[C@@H]1C[C@@H]2O [Paclitaxel, reference compound] | 56 | 25 | 41 | 77 | 105 | – | – | – |
| C#Cc1cccc(Nc2ncnc3cc(OCCOC)c(OCCOC)cc23)c1 [erlotinib, reference compound] | – | – | – | – | – | ~29 | rate of tumor regrowth was similar to control/vehicle | initial sensitivity followed by acquired erlotinib-resistance |
